The test system of data set [1] is Hsc70. Briefly: Detection of Hsc70 gene expression level upon action of compound on 2.2.15 cells (real-time fluorescent quantified PCR). The data set is classed as cell-based. Further details: Hsc70 mRNA / Hsc70 down-regulation rate (%): unit not given here. As to conditions: 2.2.15 cells; for Hsc70 mRNA: down-regulation of liver cell Hsc70 gene; for Hsc70 inhibition rate (down-regulation of Hsc70 expression activity, expressed in relative OMT ratio): relative to OMT (= 1). The method in brief:
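2.2.15 cells grown 24 hr in 10% FCS medium, then exposed to compounds (20 mg/ml MEM stock diluted in medium) for 12, 24 or 36 hr; 400 μg/ml OMTR as control. Hsc70 mRNA and HBV DNA changes measured by real-time fluorescent quantitative PCR.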

Data set [2] can be described thus: Acute toxicity of compound in mice. The data set is classed as in vivo. As for the experimental part: Kunming mice (purchased from Institute of Animal, Chinese Academy of Medical Sciences), 18-20 g, were weighed and randomly divided in groups, 10 mice per group, half male and half female, intraperitoneally injected with DM122 solution, in concentration of 0, 250 mg/kg, 500 mg/kg and 1000 mg/kg once. The death of animals was observed. On the 7th day, the animals were weighed, blood samples were taken and functional indexes (GOT, GPT, BUN and CRE) of liver and kidney in blood were determined.
Since Compound 6b had relatively high activity on anti-HBV and anti-HCV. The inventors had used it as a candidate of anti-hepatitis drug to evaluate its safety in animal body. Kunming mice were used for test of safety and acute toxicity of Compound 6b (13-methoxy matrine), via oral administration, administration doses were separately 250, 500 and 750 mg/kg once, then the mice were strictly monitored for 7 days.

The next data set relates to HCV. Put plainly: Inhibition effects of compounds on HCV in Huh7.5 cultured cell after HCV infection. The data set is classed as cell-based. As to conditions: for EC50 (half effective concentration): virus not given, stands beside HCV inhibition rate. As for the experimental part:
1×10^5/ml Huh7.5 cells (purchased from Vertex Pharmaceutical Co., USA) were inoculated in an amount of 0.1 ml on 96-well culture plate, placed in an incubator with 37° C., 5% CO2 content and saturation humidity, and cultured for 24 h, HCV virus in 45 IU/cell was used to infect Huh7.5, different drug solutions (DM122) formulated with culture medium were added, and cell control and HCV infection control were set. Cultivation was continuously performed in the incubator with 37° C., 5% CO2 content and saturation humidity for 72 h, kit for RNA extraction was used to extract intracellular RNA, one-step qRT-PCR was used to determine intracellular contents of HCV and GAPDH RNA, and the inhibition effects of drug on HCV infection was analyzed. […] In comparison with the virus control group, the inhibition effects on HCV infection upon action of different drugs were analyzed. […] This experiment was repeated for 3 times, * indicated […] in comparison with control, ** indicated p<0.01 in comparison with control.

Data set [3] concerns Lamivudine-resistant strain (LRS M204V L180M) HBV. Briefly: Inhibition effects on drug resistant type HBV (Real-time PCR of HBV DNA, Huh-7.5 cells). The data set is classed as cell-based. As to conditions: 36 h; lamivudine 0.16n/mL, compound 6b 37 μg/mL. As for the experimental part: (§1) Lamivudine-resistant strain (LRS M204V L180M) was used to transfect Huh-7.5 cells, lamivudine was used as positive control, lamivudine (0.16n/mL) and compound 6b (37 μg/mL) were separately used to treat wild type and LRS type HBV, after 36 h, Real-time PCR was used to determine HBV DNA levels, respectively, and the results were shown in FIG. 12.
Background: Real-time PCR tracks product formation cycle by cycle.

In the next data set the test system is wild type HBV. Put plainly: Inhibition effects on wild type HBV (Real-time PCR of HBV DNA, Huh-7.5 cells). In kind it is cell-based. The conditions noted are these: 36 h; lamivudine 0.16n/mL, compound 6b 37 μg/mL. As for the experimental part:
as §1

The subject of a further data set is 2.2.15 cells. Put plainly: Drug TC50 by MTT detection. The data set is classed as cell-based. As to conditions: Reed-Muench. As for the experimental part: 2.2.15 cells (all cells were purchased from Vertex Pharmaceutical Co., USA) in exponential growth phase were inoculated on 96-well culture plate, 2×10^5 cells/well, added with culture media containing PFA diluted in different concentration rates, 3 wells for each diluted concentration, placed in 37° C. CO2—containing incubator and cultivated for 48 h; the supernatant was discarded, 100 μl of MTT (0.5 mg/ml) in culture medium was added, cultivation was continuously performed at 37° C. for 4 h; each well was added to 100 μl of 50% DMF-20% SDS destaining solution, stood at 37° C. overnight; ELISA was used to measure optical density at wavelength of 570 nm (0D570).
In each experiment, 3 cell control wells and 3 blank controls well were set, the results were used in formula, (cell control OD570-drug-medicated cell OD570)/cell control OD570, to calculate cell death rate (%), and Reed-Muench method was used to calculate half toxic concentration TC50.

Data set [4] concerns Hsc70. Put plainly: Inhibition effects of compound on Hsc70 in Huh7.5 cultured cell (qRT-PCR, Western blotting). In kind it is cell-based. On the set-up: key to Hsc70 down-regulation rate (%): “—” represents no significant inhibition rate. As for the experimental part:
2×10^5/ml Huh7.5 cells (purchased from Vertex Pharmaceutical Co., USA) were inoculated in an amount of 3 ml on 6-well culture plate, placed in an incubator with 37° C., 5% CO2 content, saturation humidity, and cultured for 24 h, added with different drug solutions (DM122) formulated with culture medium, and cell control was set. Cultivation was continuously performed in the incubator with 37° C., 5% CO2 content, saturation humidity for 24 h, a kit for RNA extraction was used to extract intracellular RNA from the cells, and one-step qRT-PCR was used to determine intracellular contents of Hsc70 and GAPDHRNA. After the cultivation of cells was performed for 48 h, the cells were digested and harvested, then the cells were split with CytoBuster™ Protein Extraction Buffer that contained many kinds of protease inhibitors, total intracellular proteins were extracted, and Western blotting was used to analyze the contents of Hsc70 and GAPDH proteins. In comparison with the cell control, the inhibition effects on Hsc70 upon action of different drugs were analyzed.

In brackets after ≈: the same amount, converted by molar mass.

In general, melting point refers to the temperature, or range, at which the solid turns liquid. On to `CC(=O)N1C[C@H]2CCCN3CCC[C@@H](C23)C1CCCC(=O)O` (some centres unmarked), for which the melting point is 127.4 to 129.6 °C.

Take `O=C1CC(O)CC2C3CCCN4CCCC(CN12)C34` (stereo not drawn) [Compound 5, β-hydroxyl matrine]: the melting point fell in the range of 211 to 213 °C. The “Hsc70 mRNA” value with Hsc70 [1] turned out to be 50.4 ± 0.19.

For `CCOC1CC(=O)N2CC3CCCN4CCCC(C34)C2C1` (centres unmarked) [Compound 6b, 13-ethoxy matrine], the “oral LD50” value in data set [2] (mice, oral administration once) is reported as “greater than 1000 mg/kg”. Also, the death of mice result in data set [2] (oral once, 250, 500 and 750 mg/kg) was “no mouse died”. For the same compound, in data set [2] (oral once, 250, 500 and 750 mg/kg (FIG. 11A)), the change of bodyweight entry is “no significant change of bodyweight”. Further, the “AST, ALT, BUN and CRE indexes in blood” value in data set [2] (oral, 750 mg/kg dose group (FIG. 11B)) was “no significant abnormality”. For the same compound, in the data set with HCV (HCV-infected Huh7.5 cells, 200 μg/mL, Western blotting (FIG. 7B)), the “anti-HCV activity (HCV nucleoprotein and Hsc70 protein levels)” value was “significant activity on anti-HCV”. The “activity against HCV (HCV RNA level)” value with HCV (HCV-infected Huh7.5 cells, 200 μg/mL, real-time RT-PCR) is listed as “best activity against HCV”. The “Hsc70 mRNA” value with Hsc70 [1] was determined as 74.1 ± 0.11. Further, the “inhibition rate on drug-resistant HBV” value in data set [3] stood at 32%. Also, the “inhibition rate on wild type HBV” value in the data set with wild type HBV is listed as 35%.

In the case of `O=C1C(O)C(O)CC2C3CCCN4CCCC(CN12)C34` (centres unmarked) [Compound 8, 13,14-dihydroxyl matrine], the melting point is 156 to 158 °C. Moreover, the “Hsc70 mRNA” value in the data set with Hsc70 [1] was determined as 38.9 ± 0.13.

Turning to `COC1=CCC2C3CCCN4CCCC(CN2C1=O)C34` (centres unmarked) [Compound 10, 14-methoxy sophocarpine], the melting point lay within 110 to 111 °C. Further, in the data set on Hsc70 [1], the “Hsc70 mRNA” value is listed as 39.7 ± 0.16.

Turning to `O=C(O)CCCC1NCC2CCCN3CCCC1C23` (centres unmarked) [DM-100, matrinic acid], the melting point is 185.7 to 187.7 °C. For the same compound, the “Hsc70 inhibition rate (down-regulation of Hsc70 expression activity, expressed in relative OMT ratio)” value in the data set with Hsc70 [1] worked out at 1.02.

For the compound `CC(=O)N1C[C@@H]2CCCN3CCC[C@@H](C23)C1CCCC(=O)O` (some centres unmarked) [DM-101, N-acetyl matrinic acid], the melting point was 196.8 to 198.9 °C. The “Hsc70 inhibition rate (down-regulation of Hsc70 expression activity, expressed in relative OMT ratio)” value in the data set with Hsc70 [1] worked out at 0.73.

On to `O=C(O)CCCC1C2CCCN3CCCC(CN1Cc1cccc([N+](=O)[O-])c1)C23` (centres unmarked) [DM-137, N-(3-nitrobenzyl) matrinic acid], for which the “CC50 (concentration to cause poisoning in half cells)” value (“CC50” for short) in the data set on 2.2.15 cells was found to be 471.59 µg/mL (≈ 1170 µM). Besides, the figures for the “HCV inhibition rate (%)” value with HCV (200 ug/ml (upper data)) and in the data set on HCV (400 ug/ml (lower data)) were 99.8 ± 0.1% and 99.7 ± 0.0%, respectively. For the same compound, in the data set with HCV, the “EC50 (half effective concentration)” value is under 12.34 µg/mL. Besides, the “Hsc70 inhibition rate (down-regulation of Hsc70 expression activity, expressed in relative OMT ratio)” value with Hsc70 [1] is on record as 1.31. Besides, the “Hsc70 down-regulation rate (%)” value in the data set on Hsc70 [4] (200 ug/ml (upper data)) and in the data set on Hsc70 [4] (400 ug/ml (lower data)) was “—” throughout.

Regarding `Cc1ccccc1CN1CC2CCCN3CCCC(C1CCCC(=O)O)C23` (centres unmarked) [DM-138, N-(2-methylbenzyl) matrinic acid], the “CC50” value in the data set with 2.2.15 cells is 418.3 µg/mL (≈ 1130 µM). The “HCV inhibition rate (%)” value in the data set on HCV (200 ug/ml (upper data)) amounted to 91.5 ± 7.4%; in the data set on HCV (400 ug/ml (lower data)) it was 95.1 ± 2.9%. Besides, the “EC50 (half effective concentration)” value in the data set with HCV is 82.49 µg/mL (≈ 223 µM). The “Hsc70 inhibition rate (down-regulation of Hsc70 expression activity, expressed in relative OMT ratio)” value in the data set on Hsc70 [1] is given as 1.35. Besides, the “Hsc70 down-regulation rate (%)” value in the data set on Hsc70 [4] (200 ug/ml (upper data)) is recorded as 34.8 ± 2.1%; in the data set on Hsc70 [4] (400 ug/ml (lower data)) it was 21.1 ± 12.0%.

As for `Cc1cccc(CN2CC3CCCN4CCCC(C2CCCC(=O)O)C34)c1` (centres unmarked) [DM-139, N-(3-methylbenzyl) matrinic acid], the “CC50” value with 2.2.15 cells was 885.1 µg/mL (≈ 2390 µM). Further, the figures for the “HCV inhibition rate (%)” value with HCV (200 ug/ml (upper data)) and with HCV (400 ug/ml (lower data)) were 88.5 ± 4.8% and 98.1 ± 1.0%, respectively. The “EC50 (half effective concentration)” value in the data set with HCV amounted to 98.65 µg/mL (≈ 266 µM). For the same compound, in the data set on Hsc70 [1], the “Hsc70 inhibition rate (down-regulation of Hsc70 expression activity, expressed in relative OMT ratio)” value is 1.39. The “Hsc70 down-regulation rate (%)” value is on record as 20.5 ± 24.8% in the data set on Hsc70 [4] (200 ug/ml (upper data)) and “—” with Hsc70 [4] (400 ug/ml (lower data)).

Regarding `Cc1ccc(CN2CC3CCCN4CCCC(C2CCCC(=O)O)C34)cc1` (centres unmarked) [DM-140, N-(4-methylbenzyl) matrinic acid], the “CC50” value in the data set with 2.2.15 cells was over 1000 µg/mL. Also, the “HCV inhibition rate (%)” value turned out to be 83.4 ± 1.8% in the data set with HCV (200 ug/ml (upper data)) and 96.0 ± 1.2% in the data set with HCV (400 ug/ml (lower data)). Moreover, in the data set with HCV, the “EC50 (half effective concentration)” value was determined as 18.68 µg/mL (≈ 50.4 µM). Further, the “Hsc70 inhibition rate (down-regulation of Hsc70 expression activity, expressed in relative OMT ratio)” value with Hsc70 [1] was 0.77. Moreover, the results for the “Hsc70 down-regulation rate (%)” value in the data set on Hsc70 [4] (200 ug/ml (upper data)) and with Hsc70 [4] (400 ug/ml (lower data)) were 53.8 ± 7.6% and “—”, respectively.

In the case of `Nc1ccn([C@@H]2CS[C@H](CO)O2)c(=O)n1` [lamivudine, reference compound], in data set [3], the “inhibition rate on drug-resistant HBV” value is 28%. For the same compound, the “inhibition rate on wild type HBV” value with wild type HBV amounted to 64%.
